Numbered stars: 1 amine (or outer) side, 2 acyl side, 3 side chain; on linkers, the order of the positions; unused ones are H or OH. Bridge positions count the residues as written; N and C are the ends. Square brackets hold non-standard residues; d marks the D form. Peptide text beside a SMILES is read from it. * marks the point of attachment. ξ: configuration not given here. Phe(4-CH2CH2COOH) = N[C@@H](Cc1ccc(CCC(=O)O)cc1)C(=O)O; Phe(3-CF3) = N[C@@H](Cc1cccc(C(F)(F)F)c1)C(=O)O; Phe(4-COOH) = N[C@@H](Cc1ccc(C(=O)O)cc1)C(=O)O; d(γGlu) = O=C(O)[C@@H](CCC(=O)[*:2])N[*:1]; Bip = N[C@@H](Cc1ccc(-c2ccccc2)cc1)C(=O)O; Ala(2-furyl) = N[C@@H](Cc1ccco1)C(=O)O; Phe(3-Me) = Cc1cccc(C[C@H](N)C(=O)O)c1; NH(CH2)12COOH = O=C(O)CCCCCCCCCCCCN*; Val(3-OH) = CC(C)(O)[C@H](N)C(=O)O; 3Thi = N[C@@H](Cc1ccsc1)C(=O)O; Cha = N[C@@H](CC1CCCCC1)C(=O)O; Cit = NC(=O)NCCC[C@H](N)C(=O)O; Thr(3ξ) = CC(O)[C@H](N)C(=O)O; dDab = NCC[C@@H](N)C(=O)O; Carboxymethyl = O=C(O)C*; Orn = NCCC[C@H](N)C(=O)O; Aun = NCCCCCCCCCCC(=O)O; Dab = NCC[C@H](N)C(=O)O; Nva = CCC[C@H](N)C(=O)O; Dap = NC[C@H](N)C(=O)O; AEEA = NCCOCCOCC(=O)O; Ac3c = NC1(C(=O)O)CC1
The compounds below were run against T1, PD-1/PD-L1 interaction (PE-labeled human PD-L1-Ig binding to Jurkat cell line over-expressing human PD-1) (Homo sapiens, UniProt Q15116) (assay: Jurkat-PD-1 Cell Binding High-Content Screening Assay (CBA)). Conditions: Jurkat cell line over-expressing human PD-1; PE-labeled PD-L1-Ig 20 nM final; read-out: Jurkat hPD1-PDL1 IC50.
T1 construct: expressed in transfected cells; host or cells: Jurkat
T1 sequence (Q15116 25-288): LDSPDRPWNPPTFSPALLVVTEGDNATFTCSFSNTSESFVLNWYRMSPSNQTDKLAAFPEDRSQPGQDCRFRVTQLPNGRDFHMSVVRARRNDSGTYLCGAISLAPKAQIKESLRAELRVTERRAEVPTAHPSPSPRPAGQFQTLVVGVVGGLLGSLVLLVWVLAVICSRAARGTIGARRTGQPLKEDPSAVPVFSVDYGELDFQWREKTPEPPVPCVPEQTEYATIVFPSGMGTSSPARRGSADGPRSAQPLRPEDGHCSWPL
Format: cell-based
How it was run: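 Read-out is high-content imaging of cell-bound phycoerythrin-tagged PD-L1-Ig on fixed, Hoechst-counterstained Jurkat cells that over-express human PD-1. Compound exposure lasts 2 h at 37° C before the labeled ligand (20 nM final) is added for a further hour.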

SMILES	IC50 [nM]
Cc1cccc(C[C@@H]2NC(=O)[C@H](CC(=O)O)NC(=O)[C@H](Cc3ccc(OCC(=O)O)cc3)NC(=O)[C@H](CN)NC(=O)CSC[C@@H](C(=O)N[C@@H](CCCCN)C(=O)NCCOCCOCC(=O)NCCCCCCCCCCC(=O)O)NC(=O)[C@H](CCCNC(=N)N)NC(=O)[C@H](C(C)C)NC(=O)[C@H](CC3CCCCC3)NC(=O)[C@H](CCN)NC(=O)[C@@H](CC(C)C)NC(=O)[C@H](CCCN)NC(=O)[C@H](CCCNC(N)=O)NC(=O)[C@H](Cc3ccc(-c4ccccc4)cc3)NC(=O)[C@H](C(C)C)NC2=O)c1 [Compound 2653] ({CH2CO}-[Dap]Y(Carboxymethyl)D[Phe(3-Me)]V[Bip][Cit][Orn][dL][Dab][Cha]VRCK[AEEA][Aun]-OH; thioether N-14)	11.2
CC(C)C[C@H]1NC(=O)[C@H](CCCN)NC(=O)[C@H](Cc2ccc(O)cc2)NC(=O)[C@H](Cc2ccc(-c3ccccc3)cc2)NC(=O)[C@H](C(C)C)NC(=O)[C@H](Cc2c[nH]c3ccccc23)NC(=O)[C@H](CC(=O)O)NC(=O)[C@H](Cc2ccc(OCC(=O)O)cc2)NC(=O)[C@H](C(C)O)NC(=O)CSC[C@@H](C(=O)N[C@H](CCN)C(=O)NCCCCCCCCCCC(=O)O)NC(=O)[C@H](Cc2ccco2)NC(=O)[C@H](C(C)C)NC(=O)[C@H](CC2CCCCC2)NC(=O)[C@H](CCN)NC1=O (stereo partly drawn) [Compound 3422] ({CH2CO}-[Thr(3ξ)]Y(Carboxymethyl)DWV[Bip]Y[Orn][dL][Dab][Cha]V[Ala(2-furyl)]C[dDab][Aun]-OH; thioether N-14)	78.2
Cc1cccc(C[C@@H]2NC(=O)[C@H](CC(=O)O)NC(=O)[C@H](Cc3ccc(CCC(=O)O)cc3)NC(=O)[C@H](CN)NC(=O)CSC[C@@H](C(=O)N[C@@H](CCCN)C(=O)N[C@@H](CO)C(=O)NCCCCCCCCCCC(=O)O)NC(=O)[C@H]([C@@H](C)O)NC(=O)[C@H](C(C)C)NC(=O)[C@H](CC3CCCCC3)NC(=O)[C@H](CCN)NC(=O)[C@@H](CC(C)C)NC(=O)[C@H](CCCN)NC(=O)[C@H](CCCNC(N)=O)NC(=O)[C@H](Cc3ccc(-c4ccccc4)cc3)NC(=O)[C@H](C(C)C)NC2=O)c1 [Compound 2812] ({CH2CO}-[Dap][Phe(4-CH2CH2COOH)]D[Phe(3-Me)]V[Bip][Cit][Orn][dL][Dab][Cha]VTC[Orn]S[Aun]-OH; thioether N-14)	24
CC(=O)NCCCC[C@@H]1NC(=O)[C@H](Cc2ccc(-c3ccccc3)cc2)NC(=O)[C@H](Cc2ccc(O)cc2)NC(=O)[C@H](Cc2cccc(C)c2)NC(=O)[C@H](CC(=O)O)NC(=O)[C@H](Cc2ccc(OCC(=O)O)cc2)NC(=O)[C@H](CCCNC(=N)N)NC(=O)CSC[C@@H](C(=O)N[C@@H](CCN)C(=O)NCCCCCCCCCCC(=O)O)NC(=O)[C@H](CCCNC(N)=O)NC(=O)[C@H](C(C)C)NC(=O)[C@H](CC2CCCCC2)NC(=O)[C@H](CCN)NC(=O)[C@@H](CC(C)C)NC(=O)[C@H](CCCN)NC1=O [Compound 3386] ({CH2CO}-RY(Carboxymethyl)D[Phe(3-Me)]Y[Bip]K(Ac)[Orn][dL][Dab][Cha]V[Cit]C[Dab][Aun]-OH; thioether N-14)	4.4
Cc1cccc(C[C@@H]2NC(=O)[C@H](CC(=O)O)NC(=O)[C@H](Cc3ccc(OCC(=O)O)cc3)NC(=O)[C@H](CN)NC(=O)CSC[C@@H](C(=O)N[C@@H](CCN)C(=O)NCCCCCCCCCCC(=O)O)NC(=O)[C@H]([C@@H](C)O)NC(=O)[C@H](C(C)(C)O)NC(=O)[C@H](CC3CCCCC3)NC(=O)[C@H](CCN)NC(=O)[C@@H](CC(C)C)NC(=O)[C@H](CCCN)NC(=O)[C@H](CCCNC(N)=O)NC(=O)[C@H](Cc3ccc(-c4ccccc4)cc3)NC(=O)[C@H](C(C)C)NC2=O)c1 [Compound 2153] ({CH2CO}-[Dap]Y(Carboxymethyl)D[Phe(3-Me)]V[Bip][Cit][Orn][dL][Dab][Cha][Val(3-OH)]TC[Dab][Aun]-OH; thioether N-14)	23.4
CC(C)C[C@H]1NC(=O)[C@H](CCCN)NC(=O)[C@H](Cc2ccc(OCC(=O)O)cc2)NC(=O)[C@H](Cc2ccc(-c3ccccc3)cc2)NC(=O)[C@H](Cc2ccc(C(=O)O)cc2)NC(=O)[C@H](Cc2cccc(C(F)(F)F)c2)NC(=O)[C@H](CC(=O)O)NC(=O)[C@H](Cc2ccc(OCC(=O)O)cc2)NC(=O)[C@H](Cc2ccc(OCC(=O)O)cc2)NC(=O)CSC[C@@H](C(=O)N[C@@H](CCN)C(=O)NCCOCCOCC(=O)N[C@H](CCC(=O)NCCOCCOCC(=O)NCCCCCCCCCCCCC(=O)O)C(=O)O)NC(=O)[C@H](CO)NC(=O)[C@H](C(C)(C)O)NC(=O)[C@H](CC2CCCCC2)NC(=O)[C@H](CCN)NC1=O [Compound 3904] ({CH2CO}-Y(Carboxymethyl)Y(Carboxymethyl)D[Phe(3-CF3)][Phe(4-COOH)][Bip]Y(Carboxymethyl)[Orn][dL][Dab][Cha][Val(3-OH)]SC[Dab][AEEA][d(γGlu)][AEEA]-{NH(CH2)12COOH}; thioether N-14)	38.1

Next, values leading:

IC50 [nM]	SMILES
13.3	Cc1cccc(C[C@@H]2NC(=O)[C@H](CC(=O)O)NC(=O)[C@H](Cc3ccc(OCC(=O)O)cc3)NC(=O)[C@H](CCN)NC(=O)CSC[C@@H](C(=O)NCCOCCOCC(=O)NCCCCCCCCCCC(=O)O)NC(=O)[C@H](C(C)O)NC(=O)[C@H](C(C)C)NC(=O)[C@H](CC3CCCCC3)NC(=O)[C@H](CCN)NC(=O)[C@@H](CC(C)C)NC(=O)[C@H](CCCN)NC(=O)[C@H](CCCNC(N)=O)NC(=O)[C@H](Cc3ccc(-c4ccccc4)cc3)NC(=O)[C@H](C(C)C)NC2=O)c1 (stereo partly drawn) [Compound 3047] ({CH2CO}-[Dab]Y(Carboxymethyl)D[Phe(3-Me)]V[Bip][Cit][Orn][dL][Dab][Cha]V[Thr(3ξ)]C[AEEA][Aun]-OH; thioether N-14)
8	CC(C)C[C@H]1NC(=O)[C@H](CCN)NC(=O)[C@H](C(C)C)NC(=O)[C@H](Cc2ccc(-c3ccccc3)cc2)NC(=O)[C@H](C(C)C)NC(=O)[C@H](Cc2c[nH]c3ccccc23)NC(=O)[C@H](CC(=O)O)NC(=O)[C@H](Cc2ccc(OCC(=O)O)cc2)NC(=O)[C@H](Cc2ccsc2)NC(=O)CSC[C@@H](C(=O)NCCOCCOCC(=O)N[C@@H](CCCN)C(=O)NCCCCCCCCCCC(=O)O)NC(=O)[C@H](C(C)O)NC(=O)[C@H](C(C)C)NC(=O)[C@H](CC2CCCCC2)NC(=O)[C@H](CCN)NC1=O (stereo partly drawn) [Compound 3210] ({CH2CO}-[3Thi]Y(Carboxymethyl)DWV[Bip]V[Dab][dL][Dab][Cha]V[Thr(3ξ)]C[AEEA][Orn][Aun]-OH; thioether N-14)
1.5	CCC[C@@H]1NC(=O)CSC[C@@H](C(=O)N[C@@H](CCN)C(=O)NCCOCCOCC(=O)NCCCCCCCCCCC(=O)O)NC(=O)[C@H](CO)NC(=O)[C@H](C(C)(C)O)NC(=O)[C@H](CC2CCCCC2)NC(=O)[C@H](CCN)NC(=O)[C@@H](CC(C)C)NC(=O)[C@H](CCCN)NC(=O)[C@H](Cc2ccc(C(=O)O)cc2)NC(=O)[C@H](Cc2ccc(-c3ccccc3)cc2)NC(=O)[C@H](Cc2ccc(C(=O)O)cc2)NC(=O)[C@H](Cc2cccc(C)c2)NC(=O)[C@H](CC(=O)O)NC(=O)[C@H](Cc2ccc(OCC(=O)O)cc2)NC1=O [Compound 2877] ({CH2CO}-[Nva]Y(Carboxymethyl)D[Phe(3-Me)][Phe(4-COOH)][Bip][Phe(4-COOH)][Orn][dL][Dab][Cha][Val(3-OH)]SC[Dab][AEEA][Aun]-OH; thioether N-14)
73.6	CC(C)C[C@H]1NC(=O)[C@H](CCCN)NC(=O)[C@H](Cc2ccc(O)cc2)NC(=O)[C@H](Cc2ccc(-c3ccccc3)cc2)NC(=O)[C@H](C(C)C)NC(=O)[C@H](Cc2c[nH]c3ccccc23)NC(=O)[C@H](CC(=O)O)NC(=O)[C@H](Cc2ccc(OCC(=O)O)cc2)NC(=O)[C@H](CCCNC(=N)N)NC(=O)CSC[C@@H](C(=O)N[C@@H](CCN)C(=O)NCCCCCCCCCCC(=O)O)NC(=O)[C@H](Cc2ccco2)NC(=O)[C@H](C(C)C)NC(=O)[C@H](CC2CCCCC2)NC(=O)[C@H](CCN)NC1=O [Compound 3415] ({CH2CO}-RY(Carboxymethyl)DWV[Bip]Y[Orn][dL][Dab][Cha]V[Ala(2-furyl)]C[Dab][Aun]-OH; thioether N-14)
119	Cc1cccc(C[C@@H]2NC(=O)[C@H](CC(=O)O)NC(=O)[C@H](Cc3ccc(OCC(=O)O)cc3)NC(=O)C3(CC3)NC(=O)CSC[C@@H](C(=O)N[C@@H](CCN)C(=O)NCCCCCCCCCCC(=O)O)NC(=O)[C@H](CO)NC(=O)[C@H](C(C)(C)O)NC(=O)[C@H](CC3CCCCC3)NC(=O)[C@H](CCN)NC(=O)[C@@H](CC(C)C)NC(=O)[C@H](CCCN)NC(=O)[C@H](Cc3ccc(OCC(=O)O)cc3)NC(=O)[C@H](Cc3ccc(-c4ccccc4)cc3)NC(=O)[C@H](Cc3ccc(OCC(=O)O)cc3)NC2=O)c1 [Compound 2180] ({CH2CO}-[Ac3c]Y(Carboxymethyl)D[Phe(3-Me)]Y(Carboxymethyl)[Bip]Y(Carboxymethyl)[Orn][dL][Dab][Cha][Val(3-OH)]SC[Dab][Aun]-OH; thioether N-14)
20.7	Cc1cccc(C[C@@H]2NC(=O)[C@H](CC(=O)O)NC(=O)[C@H](Cc3ccc(OCC(=O)O)cc3)NC(=O)[C@H](CCN)NC(=O)CSC[C@@H](C(=O)N[C@@H](CCN)C(=O)NCCCCCCCCCCC(=O)O)NC(=O)[C@H](CO)NC(=O)[C@H](C(C)O)NC(=O)[C@H](CC3CCCCC3)NC(=O)[C@H](Cc3cnc[nH]3)NC(=O)[C@@H](CC(C)C)NC(=O)[C@H](CCCN)NC(=O)[C@H](Cc3ccc(OCC(=O)O)cc3)NC(=O)[C@H](Cc3ccc(-c4ccccc4)cc3)NC(=O)[C@H](Cc3ccc(OCC(=O)O)cc3)NC2=O)c1 (stereo partly drawn) [Compound 3672] ({CH2CO}-[Dab]Y(Carboxymethyl)D[Phe(3-Me)]Y(Carboxymethyl)[Bip]Y(Carboxymethyl)[Orn][dL]H[Cha][Thr(3ξ)]SC[Dab][Aun]-OH; thioether N-14)
